The text below walks through data of patent publication US20070197513A1, “Ion channel modulators” (priority 2004, published 2007).

Read-outs that look alike come from different tables or passages of the source.

The test system of the experiment is calcium channel (e.g., L-type, N-type, etc.) current. Briefly: HEK assay: whole-cell voltage clamp in transiently transfected HEK-293T/17 cells. Particulars: patch clamp, holding potential −100 mV, steps to about +10 mV. Format: cell-based. Here is the method:
HEK-293T/17 cells are transiently transfected in a similar manner as described in FuGENE 6 Package Insert Version 7, April 2002, Roche Applied Science, Indianapolis, Ind. The cells are plated at 2.5×10^5 cells in 2 mL in a 6-well plate in incubator for one night and achieve a 30 40% confluence. In a small sterile tube, add sufficient serum-free medium as diluent for FuGENE Transfection Reagent (Roche Applied Science, Indianapolis, Ind.), to a total volume of 100 μL. Add 3 μL of FuGENE 6 Reagent directly into this medium. The mixture is tapped gently to mix. 2 μg of DNA solution (0.8-2.0 μg/μL) is added to the prediluted FuGENE 6 Reagent from above. The DNA/Fugene 6 mixture is gently pipeted to mix the contents and incubated for about 15 minutes at room temperature. The complex mixture is then added to the HEK-293T/17 cells, distributing it around the well, and swirled to ensure even dispersal. The cells are returned to the incubator for 24 hrs. The transfected cells are then replated at density 2.5×10^5 in a 35 mm dish with 5 glass coverslips and grow in low serum(1%) media for 24 hrs. Coverslips with isolated cells are then transferred into chamber and calcium channel ([…].) current or other currents for counter screening are recorded from the transiently transfected HEK-293T/17 cells. The whole-cell voltage clamp configuration of the patch clamp technique is employed to evaluate voltage-dependent calcium currents essentially as described by Thompson and Wong (1991) J. Physiol., 439: 671-689. […] Table 3 contains IC50's for representative compounds.

In the case of `COc1ccccc1-c1nc(CCN2CCCC2)cn1-c1ccc(Cl)cc1` [Compound 6], the IC50 (read-out: IC50) is 990 nM.
Regarding `COc1ccccc1-c1nc(CCN(C)c2ccc(F)cc2)cn1-c1ccc(Cl)cc1` [Compound 1], the 50% inhibitory concentration (IC50) is 46 nM.
As for `COc1ccccc1-c1nc(Cc2nc3ccccc3[nH]2)cn1-c1ccc(Cl)cc1` [Compound 2, 2-[1-(4-Chloro-phenyl)-2-(2-methoxy-phenyl)-1H-imidazol-4-ylmethyl]-1H-benzoimidazole], where the note is “read-out: IC50”, the half-inhibitory concentration (IC50) was 173 nM.
